For one molecule, inhibition and IC50 results are on record in ChEMBL document CHEMBL1154839, “Molassamide, a depsipeptide serine protease inhibitor from the marine cyanobacterium Dichothrix utahensis” (J Nat Prod, 2010).

Broadly, the IC50 is the concentration that gives 50% inhibition. A low value points to greater potency.

Active and inactive are the calls of the source. The rule behind the calls is not given here.

Experiment [1] deals with Trypsin (Sus scrofa) (UniProt P00761). The experiment can be described thus: Inhibition of pig pancreas trypsin at 10 uM preincubated for 10 mins by spectrophotometry.
Trypsin (Sus scrofa), sequence (P00761 whole entry): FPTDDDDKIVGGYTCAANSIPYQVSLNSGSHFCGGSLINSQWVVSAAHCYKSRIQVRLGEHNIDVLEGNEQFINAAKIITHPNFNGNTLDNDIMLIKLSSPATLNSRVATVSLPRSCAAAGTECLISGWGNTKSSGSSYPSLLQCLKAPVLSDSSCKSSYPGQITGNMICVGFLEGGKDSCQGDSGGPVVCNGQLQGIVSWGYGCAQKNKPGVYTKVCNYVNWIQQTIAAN
Experiment [2] deals with Chymotrypsin-like elastase family member 1 (Sus scrofa, UniProt P00772). The experiment can be described thus: Inhibition of pig pancreatic elastase preincubated for 15 mins by spectrophotometry.
Chymotrypsin-like elastase family member 1, sequence (P00772 whole entry): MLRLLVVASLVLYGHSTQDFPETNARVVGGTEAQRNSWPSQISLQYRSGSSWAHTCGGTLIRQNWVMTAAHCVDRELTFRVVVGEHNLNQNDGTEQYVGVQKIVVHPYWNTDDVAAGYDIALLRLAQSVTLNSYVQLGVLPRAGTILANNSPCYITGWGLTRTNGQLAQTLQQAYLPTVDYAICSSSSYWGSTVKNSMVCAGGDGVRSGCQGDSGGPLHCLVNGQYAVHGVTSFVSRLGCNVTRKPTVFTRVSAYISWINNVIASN
In experiment [3] the target is Chymotrypsinogen A (Bos taurus, UniProt P00766). The experiment can be described thus: Inhibition of bovine pancreas alpha-chymotrypsin preincubated for 10 mins by spectrophotometry.

For the molecule `C/C=C1\NC(=O)[C@@H](NC(=O)[C@@H](NC(=O)[C@H](C)NC(=O)CCC)[C@@H](C)O)[C@@H](C)OC(=O)[C@H](C(C)C)NC(=O)[C@H](Cc2ccc(O)cc2)N(C)C(=O)[C@H](Cc2ccccc2)N2C(=O)[C@H](CC[C@H]2O)NC1=O` [MOLASSAMIDE], in experiment [1], the inhibition entry is “inactive”. In addition, the IC50 was 32 nM in experiment [2] and 234 nM in experiment [3].
